Experimental data published in PubChem BioAssay (NCI).
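Interpolation was linear, between the two tested concentrations surrounding the appropriate level; five concentrations were tested over 48 hours in 96-well plates. Definition used: TGI = concentration required for complete inhibition of growth.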

Tests used:
Test in all cases: NCI tumour cell line growth inhibition, 48 h
786-0 renal = tested on: 786-0 renal
A549 NSCLC = tested on: A549 NSCLC
BT-549 breast = tested on: BT-549 breast
EKVX NSCLC = tested on: EKVX NSCLC
HCC-2998 colon = tested on: HCC-2998 colon
HCT-116 colon = tested on: HCT-116 colon
HCT-15 colon = tested on: HCT-15 colon
HL-60(TB) leukemia = tested on: HL-60(TB) leukemia
HT29 colon = tested on: HT29 colon
LOX IMVI melanoma = tested on: LOX IMVI melanoma
MDA-MB-435 = tested on: MDA-MB-435
NCI-H460 lung = tested on: NCI-H460 lung
PC-3 prostate = tested on: PC-3 prostate
SN12C renal = tested on: SN12C renal
U251 CNS = tested on: U251 CNS
UACC-257 melanoma = tested on: UACC-257 melanoma
HOP-62 NSCLC = tested on: HOP-62 NSCLC
SR leukemia = tested on: SR leukemia

| Structure (SMILES) | TGI (786-0 renal) | TGI (A549 NSCLC) | TGI (BT-549 breast) | TGI (EKVX NSCLC) | TGI (HCC-2998 colon) | TGI (HCT-116 colon) | TGI (HCT-15 colon) | TGI (HL-60(TB) leukemia) | TGI (HT29 colon) | TGI (LOX IMVI melanoma) | TGI (MDA-MB-435) | TGI (NCI-H460 lung) | TGI (PC-3 prostate) | TGI (SN12C renal) | TGI (U251 CNS) | TGI (UACC-257 melanoma) | TGI (HOP-62 NSCLC) | TGI (SR leukemia) |
| --- | --- | --- | --- | --- | --- | --- | --- | --- | --- | --- | --- | --- | --- | --- | --- | --- | --- | --- |
| CC(C)C(NC(=O)Oc1ccccc1)C(=O)NC1c2c(Br)sc(Br)c2C(=O)C1O (configuration not stated) | > 25 µM | > 25 µM | 8.16 µM | 15.2 µM | 7.68 µM | 7.34 µM | 8.39 µM | > 25 µM | 7.71 µM | 8.91 µM | 13.1 µM | 8.64 µM | > 25 µM | 10.8 µM | 9.53 µM | 8.66 µM | – | – |
| CCN(CC)CCCNC(=O)c1cc(-c2nccn2C)nc2ccccc12 | > 100 µM | > 100 µM | > 100 µM | > 100 µM | > 100 µM | > 100 µM | > 100 µM | > 100 µM | > 100 µM | > 100 µM | > 100 µM | > 100 µM | > 100 µM | > 100 µM | > 100 µM | > 100 µM | > 100 µM | – |
| CCOC(=O)CCC(NC(=O)C(N)Cc1ccc(N(CCCl)CCCl)cc1)C(=O)OCC (configuration not stated) | 2.08 µM | > 33.4 µM | 12.4 µM | 6.53 µM | 2.23 µM | 3.54 µM | 1.93 µM | 0.586 µM | 3.47 µM | 1.63 µM | 3.75 µM | 4.09 µM | 7.9 µM | 5.72 µM | 7.41 µM | 5.2 µM | 7.9 µM | 14 µM |
| Cc1ccc(-[n+]2cc([O-])on2)cc1 | > 100 µM | > 100 µM | > 100 µM | > 100 µM | – | > 100 µM | > 100 µM | > 100 µM | > 100 µM | > 100 µM | > 100 µM | > 100 µM | > 100 µM | > 100 µM | > 100 µM | > 100 µM | > 100 µM | > 100 µM |
| O=C1c2ccccc2-n2nnnc2C2CSCN12 (configuration not stated) | > 100 µM | > 100 µM | > 100 µM | > 100 µM | > 100 µM | > 100 µM | > 100 µM | – | > 100 µM | > 100 µM | > 100 µM | > 100 µM | > 100 µM | > 100 µM | > 100 µM | > 100 µM | > 100 µM | > 100 µM |
| CCOC(=O)c1cn2c(n1)sc1cc(F)ccc12 | > 100 µM | > 100 µM | > 100 µM | > 100 µM | > 100 µM | > 100 µM | > 100 µM | – | > 100 µM | > 100 µM | > 100 µM | > 100 µM | > 100 µM | > 100 µM | > 100 µM | > 100 µM | > 100 µM | > 100 µM |
| Cc1ccc(S(=O)(=O)N2CC2CCCCC=O)cc1 (configuration not stated) | > 100 µM | > 100 µM | > 100 µM | > 100 µM | – | > 100 µM | > 100 µM | – | > 100 µM | 56 µM | > 100 µM | – | > 100 µM | > 100 µM | > 100 µM | > 100 µM | > 100 µM | 37.2 µM |
| O=C(C(=O)n1ccc2ccccc21)n1ccc2ccccc21 | > 100 µM | > 100 µM | > 100 µM | > 100 µM | > 100 µM | > 100 µM | > 100 µM | – | > 100 µM | > 100 µM | > 100 µM | > 100 µM | > 100 µM | > 100 µM | > 100 µM | > 100 µM | > 100 µM | > 100 µM |
| CC(=O)CC1CCC(=O)/C=C/C(=O)OC(CC(C)=O)CCC(=O)/C=C/C(=O)O1 (configuration not stated) | 10.6 µM | 43 µM | 6.7 µM | 21.2 µM | 39.4 µM | 9.08 µM | 4.16 µM | – | 31.6 µM | 35.1 µM | 32 µM | 36.3 µM | 28.6 µM | 15.3 µM | 42.8 µM | 31.4 µM | 42.8 µM | > 100 µM |
| CCOC(=O)C12OC(OCC)(CC1(OCC)OCC)C1(CC1)C2=O (configuration not stated) | > 100 µM | > 100 µM | > 100 µM | > 100 µM | > 100 µM | > 100 µM | > 100 µM | – | > 100 µM | > 100 µM | > 100 µM | > 100 µM | > 100 µM | > 100 µM | > 100 µM | > 100 µM | > 100 µM | – |
| Cc1nn(C(=O)Cc2ccccc2)c2c1C(c1ccccc1)SC(N)=N2 (configuration not stated) | > 100 µM | > 100 µM | > 100 µM | > 100 µM | > 100 µM | > 100 µM | > 100 µM | > 100 µM | > 100 µM | > 100 µM | > 100 µM | > 100 µM | > 100 µM | > 100 µM | – | > 100 µM | > 100 µM | > 100 µM |
| O=C(O)Cc1ccc([N+](=O)[O-])cc1[N+](=O)[O-] | > 100 µM | > 100 µM | > 100 µM | > 100 µM | – | > 100 µM | > 100 µM | > 100 µM | > 100 µM | > 100 µM | > 100 µM | > 100 µM | > 100 µM | > 100 µM | > 100 µM | > 100 µM | > 100 µM | – |
| C[C@]12c3c4cc(NC(=O)C(=O)NCc5ccc(-c6ccccn6)nc5)cc3Oc3cc(NC(=O)C(=O)NCc5ccc(-c6ccccn6)nc5)cc(c31)OC1C=C(NC(=O)C(=O)NCc3ccc(-c5ccccn5)nc3)C=C(O4)C12 (some centres not stated) | 75.5 µM | > 100 µM | > 100 µM | 62.4 µM | – | > 100 µM | > 100 µM | > 100 µM | > 100 µM | 70.4 µM | > 100 µM | > 100 µM | > 100 µM | > 100 µM | > 100 µM | > 100 µM | > 100 µM | 51.9 µM |
